Experimental data from publication PMC6409085, “Three odorant-binding proteins are involved in the behavioral response of Sogatella furcifera to rice plant volatiles” (PeerJ, 2019).
“And” between values parts separate entries of the source, which are not always exact repeats. Equal entries are not always repeated.

Experiments:
S. furcifera adults = assay: Y-tube olfactometer behavioral trials; assay type: in vivo, Sogatella furcifera; settings: odorant 50 µL/L vs hexane; adults
Method in brief: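 Single S. furcifera adults (2 days post-emergence, starved 0.5 h) chose between odorant (100 µL of 50 µL/L on filter paper) and hexane control in a glass Y-tube, charcoal-filtered humidified air 300 mL/min per arm, 25 ± 1 °C, 50% RH. Choice scored if insect passed half an arm and stayed >1 min within 10 min; 45 insects per compound, chi-squared test.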

SfurOBP1 = SfurOBP1 (Sogatella furcifera, UniProt V5T8N5); assay: biochemical; assay type: binding; settings: for Fluorescence competitive binding assay, fluorescence intensity: OBP1, three replicate columns
Method in brief: (§1)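 Protein 2.0 µM + 1-NPN 2.0 µM, 50 mM Tris-HCl pH 7.4; competitor odorants 2, 4 … 20 µM final; read 2 min post-addition, ex 337/em 390–490 nm; n=3. K1-NPN from 1-NPN titration/Scatchard; Ki from IC50 corrected for free 1-NPN.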

SfurOBP3 = SfurOBP3 (Sogatella furcifera, UniProt V5T818); assay: biochemical; assay type: binding; settings: for Fluorescence competitive binding assay, fluorescence intensity: OBP3, three replicate columns
Method in brief: as §1

SfurOBP11 = SfurOBP11 (Sogatella furcifera, UniProt V5T6E3); assay: biochemical; assay type: binding
Method in brief: as §1

SfurOBP2 = SfurOBP2 (Sogatella furcifera, UniProt V5T759); assay: biochemical; assay type: binding
Method in brief: as §1

Sequence of SfurOBP2 (V5T759 entry or part of it): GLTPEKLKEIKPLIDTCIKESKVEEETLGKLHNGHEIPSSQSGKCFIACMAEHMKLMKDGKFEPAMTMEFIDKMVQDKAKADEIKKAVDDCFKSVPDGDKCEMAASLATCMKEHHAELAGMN
Sequence of SfurOBP11 (V5T6E3 entry or part of it): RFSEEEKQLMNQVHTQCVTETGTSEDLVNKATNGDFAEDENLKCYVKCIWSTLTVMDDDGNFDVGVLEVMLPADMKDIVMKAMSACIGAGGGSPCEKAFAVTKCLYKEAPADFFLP
Sequence of SfurOBP1 (V5T8N5 entry or part of it): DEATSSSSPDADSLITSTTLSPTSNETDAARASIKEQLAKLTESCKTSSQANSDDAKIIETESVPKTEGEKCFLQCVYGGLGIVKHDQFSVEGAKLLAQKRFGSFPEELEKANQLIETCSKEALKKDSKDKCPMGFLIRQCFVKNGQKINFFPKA
Sequence of SfurOBP3 (V5T818 entry or part of it): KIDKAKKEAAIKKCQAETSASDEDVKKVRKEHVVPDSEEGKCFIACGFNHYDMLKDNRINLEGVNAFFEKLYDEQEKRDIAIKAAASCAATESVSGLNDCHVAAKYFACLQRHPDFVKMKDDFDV

2-heptanonol
number of insects choosing hexane arm (S. furcifera adults): 13 | number of insects choosing volatilies arm (S. furcifera adults): 16 | number of insects failed (no choice) (S. furcifera adults): 13 | Fluorescence competitive binding assay, fluorescence intensity (SfurOBP1; ligand concentration 2 (μM)): 5887 and 5646 and 5767 | Fluorescence competitive binding assay, fluorescence intensity (SfurOBP1; ligand concentration 4 (μM)): 7288 and 7577 and 6996 | Fluorescence competitive binding assay, fluorescence intensity (SfurOBP1; ligand concentration 6 (μM)): 5995 and 5950 and 6027 | Fluorescence competitive binding assay, fluorescence intensity (SfurOBP1; ligand concentration 8 (μM)): 7072 and 6140 and 5704 | Fluorescence competitive binding assay, fluorescence intensity (SfurOBP1; ligand concentration 10 (μM)): 8690 and 6215 and 5653 | Fluorescence competitive binding assay, fluorescence intensity (SfurOBP1; ligand concentration 12 (μM)): 7048 and 7677 and 6537 | Fluorescence competitive binding assay, fluorescence intensity (SfurOBP1; ligand concentration 14 (μM)): 6232 and 8602 and 7115 | Fluorescence competitive binding assay, fluorescence intensity (SfurOBP1; ligand concentration 16 (μM)): 5533 and 5298 and 5778 | Fluorescence competitive binding assay, fluorescence intensity (SfurOBP1; ligand concentration 18 (μM)): 5895 and 6061 and 6136 | Fluorescence competitive binding assay, fluorescence intensity (SfurOBP1; ligand concentration 20 (μM)): 5784 and 5580 and 5212 | IC50 (SfurOBP1; SfurOBP1, protein and 1-NPN both 2.0 µM, competitor 2-20 µM, read-out: IC50): > 20 µM | Fluorescence competitive binding assay, fluorescence intensity (SfurOBP3; ligand concentration 2): 45232 and 45869 and 44594 | Fluorescence competitive binding assay, fluorescence intensity (SfurOBP3; ligand concentration 4): 45996 and 44453 and 43020 | Fluorescence competitive binding assay, fluorescence intensity (SfurOBP3; ligand concentration 6): 47391 and 47743 and 47567 | Fluorescence competitive binding assay, fluorescence intensity (SfurOBP3; ligand concentration 8): 48801 and 50407 and 49604 | Fluorescence competitive binding assay, fluorescence intensity (SfurOBP3; ligand concentration 10): 51610 and 62768 and 47878 | Fluorescence competitive binding assay, fluorescence intensity (SfurOBP3; ligand concentration 12): 54498 and 52011 and 51877 | Fluorescence competitive binding assay, fluorescence intensity (SfurOBP3; ligand concentration 14): 42842 (2×) and 42142 | Fluorescence competitive binding assay, fluorescence intensity (SfurOBP3; ligand concentration 16): 41166 and 44357 and 42754 | Fluorescence competitive binding assay, fluorescence intensity (SfurOBP3; ligand concentration 18): 42621 and 43724 and 41536 | Fluorescence competitive binding assay, fluorescence intensity (SfurOBP3; ligand concentration 20): 45786 and 37456 and 39383 | IC50 (SfurOBP3; SfurOBP3, protein and 1-NPN both 2.0 µM, competitor 2-20 µM, read-out: IC50): > 20 µM | IC50 (SfurOBP11; SfurOBP11, protein and 1-NPN both 2.0 µM, competitor 2-20 µM, read-out: IC50): > 20 µM | Fluorescence intensity, fluorescence competitive binding assay, OBP11 (SfurOBP11; ligand concentration 2, replicate 1): 32214 | Fluorescence intensity, fluorescence competitive binding assay, OBP11 (SfurOBP11; ligand concentration 2, replicate 2): 33277 | Fluorescence intensity, fluorescence competitive binding assay, OBP11 (SfurOBP11; ligand concentration 2, replicate 3): 35354 | Fluorescence intensity, fluorescence competitive binding assay, OBP11 (SfurOBP11; ligand concentration 4, replicate 1): 33125 | Fluorescence intensity, fluorescence competitive binding assay, OBP11 (SfurOBP11; ligand concentration 4, replicate 2): 35054 | Fluorescence intensity, fluorescence competitive binding assay, OBP11 (SfurOBP11; ligand concentration 4, replicate 3): 33696 | Fluorescence intensity, fluorescence competitive binding assay, OBP11 (SfurOBP11; ligand concentration 6, replicate 1): 31772 | Fluorescence intensity, fluorescence competitive binding assay, OBP11 (SfurOBP11; ligand concentration 6, replicate 2): 31091 | Fluorescence intensity, fluorescence competitive binding assay, OBP11 (SfurOBP11; ligand concentration 6, replicate 3): 33532 | Fluorescence intensity, fluorescence competitive binding assay, OBP11 (SfurOBP11; ligand concentration 8, replicate 1): 28812 | Fluorescence intensity, fluorescence competitive binding assay, OBP11 (SfurOBP11; ligand concentration 8, replicate 2): 31104 | Fluorescence intensity, fluorescence competitive binding assay, OBP11 (SfurOBP11; ligand concentration 8, replicate 3): 31825 | Fluorescence intensity, fluorescence competitive binding assay, OBP11 (SfurOBP11; ligand concentration 10, replicate 1): 28521 | Fluorescence intensity, fluorescence competitive binding assay, OBP11 (SfurOBP11; ligand concentration 10, replicate 2): 30054 | Fluorescence intensity, fluorescence competitive binding assay, OBP11 (SfurOBP11; ligand concentration 10, replicate 3): 29747 | Fluorescence intensity, fluorescence competitive binding assay, OBP11 (SfurOBP11; ligand concentration 12, replicate 1): 26176 | Fluorescence intensity, fluorescence competitive binding assay, OBP11 (SfurOBP11; ligand concentration 12, replicate 2): 26507 | Fluorescence intensity, fluorescence competitive binding assay, OBP11 (SfurOBP11; ligand concentration 12, replicate 3): 26325 | Fluorescence intensity, fluorescence competitive binding assay, OBP11 (SfurOBP11; ligand concentration 14, replicate 1): 24809 | Fluorescence intensity, fluorescence competitive binding assay, OBP11 (SfurOBP11; ligand concentration 14, replicate 2): 27546 | Fluorescence intensity, fluorescence competitive binding assay, OBP11 (SfurOBP11; ligand concentration 14, replicate 3): 28489 | Fluorescence intensity, fluorescence competitive binding assay, OBP11 (SfurOBP11; ligand concentration 16, replicate 1): 22169 | Fluorescence intensity, fluorescence competitive binding assay, OBP11 (SfurOBP11; ligand concentration 16, replicate 2): 21457 | Fluorescence intensity, fluorescence competitive binding assay, OBP11 (SfurOBP11; ligand concentration 16, replicate 3): 24839 | Fluorescence intensity, fluorescence competitive binding assay, OBP11 (SfurOBP11; ligand concentration 18, replicate 1): 29523 | Fluorescence intensity, fluorescence competitive binding assay, OBP11 (SfurOBP11; ligand concentration 18, replicate 2): 28673 | Fluorescence intensity, fluorescence competitive binding assay, OBP11 (SfurOBP11; ligand concentration 18, replicate 3): 27420 | Fluorescence intensity, fluorescence competitive binding assay, OBP11 (SfurOBP11; ligand concentration 20, replicate 1): 25385 | Fluorescence intensity, fluorescence competitive binding assay, OBP11 (SfurOBP11; ligand concentration 20, replicate 2): 25884 | Fluorescence intensity, fluorescence competitive binding assay, OBP11 (SfurOBP11; ligand concentration 20, replicate 3): 25605 | IC50 (SfurOBP2; SfurOBP2, protein and 1-NPN both 2.0 µM, competitor 2-20 µM, read-out: IC50): > 20 µM | Fluorescence competitive binding assay, OBP2 (raw fluorescence reading) (SfurOBP2; ligand concentration 2 (unit not given), replicate column 1 of 3): 18612 | Fluorescence competitive binding assay, OBP2 (raw fluorescence reading) (SfurOBP2; ligand concentration 2 (unit not given), replicate column 2 of 3): 18747 | Fluorescence competitive binding assay, OBP2 (raw fluorescence reading) (SfurOBP2; ligand concentration 2 (unit not given), replicate column 3 of 3): 19681 | Fluorescence competitive binding assay, OBP2 (raw fluorescence reading) (SfurOBP2; ligand concentration 4 (unit not given), replicate column 1 of 3): 19302 | Fluorescence competitive binding assay, OBP2 (raw fluorescence reading) (SfurOBP2; ligand concentration 4 (unit not given), replicate column 2 of 3): 19993 | Fluorescence competitive binding assay, OBP2 (raw fluorescence reading) (SfurOBP2; ligand concentration 4 (unit not given), replicate column 3 of 3): 20683 | Fluorescence competitive binding assay, OBP2 (raw fluorescence reading) (SfurOBP2; ligand concentration 6 (unit not given), replicate column 1 of 3): 18811 | Fluorescence competitive binding assay, OBP2 (raw fluorescence reading) (SfurOBP2; ligand concentration 6 (unit not given), replicate column 2 of 3): 18736 | Fluorescence competitive binding assay, OBP2 (raw fluorescence reading) (SfurOBP2; ligand concentration 6 (unit not given), replicate column 3 of 3): 18774 | Fluorescence competitive binding assay, OBP2 (raw fluorescence reading) (SfurOBP2; ligand concentration 8 (unit not given), replicate column 1 of 3): 16468 | Fluorescence competitive binding assay, OBP2 (raw fluorescence reading) (SfurOBP2; ligand concentration 8 (unit not given), replicate column 2 of 3): 16720 | Fluorescence competitive binding assay, OBP2 (raw fluorescence reading) (SfurOBP2; ligand concentration 8 (unit not given), replicate column 3 of 3): 16981 | Fluorescence competitive binding assay, OBP2 (raw fluorescence reading) (SfurOBP2; ligand concentration 10 (unit not given), replicate column 1 of 3): 16986 | Fluorescence competitive binding assay, OBP2 (raw fluorescence reading) (SfurOBP2; ligand concentration 10 (unit not given), replicate column 2 of 3): 17111 | Fluorescence competitive binding assay, OBP2 (raw fluorescence reading) (SfurOBP2; ligand concentration 10 (unit not given), replicate column 3 of 3): 16240 | Fluorescence competitive binding assay, OBP2 (raw fluorescence reading) (SfurOBP2; ligand concentration 12 (unit not given), replicate column 1 of 3): 16820 | Fluorescence competitive binding assay, OBP2 (raw fluorescence reading) (SfurOBP2; ligand concentration 12 (unit not given), replicate column 2 of 3): 17596 | Fluorescence competitive binding assay, OBP2 (raw fluorescence reading) (SfurOBP2; ligand concentration 12 (unit not given), replicate column 3 of 3): 18083 | Fluorescence competitive binding assay, OBP2 (raw fluorescence reading) (SfurOBP2; ligand concentration 14 (unit not given), replicate column 1 of 3): 17387 | Fluorescence competitive binding assay, OBP2 (raw fluorescence reading) (SfurOBP2; ligand concentration 14 (unit not given), replicate column 2 of 3): 16676 | Fluorescence competitive binding assay, OBP2 (raw fluorescence reading) (SfurOBP2; ligand concentration 14 (unit not given), replicate column 3 of 3): 18097 | Fluorescence competitive binding assay, OBP2 (raw fluorescence reading) (SfurOBP2; ligand concentration 16 (unit not given), replicate column 1 of 3): 16472 | Fluorescence competitive binding assay, OBP2 (raw fluorescence reading) (SfurOBP2; ligand concentration 16 (unit not given), replicate column 2 of 3): 16454 | Fluorescence competitive binding assay, OBP2 (raw fluorescence reading) (SfurOBP2; ligand concentration 16 (unit not given), replicate column 3 of 3): 17500 | Fluorescence competitive binding assay, OBP2 (raw fluorescence reading) (SfurOBP2; ligand concentration 18 (unit not given), replicate column 1 of 3): 16574 | Fluorescence competitive binding assay, OBP2 (raw fluorescence reading) (SfurOBP2; ligand concentration 18 (unit not given), replicate column 2 of 3): 16302 | Fluorescence competitive binding assay, OBP2 (raw fluorescence reading) (SfurOBP2; ligand concentration 18 (unit not given), replicate column 3 of 3): 16787 | Fluorescence competitive binding assay, OBP2 (raw fluorescence reading) (SfurOBP2; ligand concentration 20 (unit not given), replicate column 1 of 3): 15630 | Fluorescence competitive binding assay, OBP2 (raw fluorescence reading) (SfurOBP2; ligand concentration 20 (unit not given), replicate column 2 of 3): 15665 | Fluorescence competitive binding assay, OBP2 (raw fluorescence reading) (SfurOBP2; ligand concentration 20 (unit not given), replicate column 3 of 3): 15648
